These results are taken from patent US11576914B2, “Drug for treating or preventing disorder caused by TGF-β signaling, and application thereof” (THE DOSHISHA, priority 2017, dated 2023).

Data set [1] concerns Fuchs' endothelial corneal dystrophy patient-derived immortalized corneal endothelial cells. In words: Cell damage inhibitory effect on iFECD stimulated with TGF-β2 (phase contrast microscope). The note with it: for disorder in the corneal endothelial cells: 1 μM and 3 μM, iFECD, pretreatment, TGF-β2 stimulation; for cell damage inhibitory effect for the corneal endothelial cells: at sub-μM. Format: cell-based, human. How it is done: The medium was removed from the culture dish in which Fuchs' endothelial corneal dystrophy patient-derived immortalized corneal endothelial cells (hereinafter, referred to as disease model cells) were being cultured, and the cells were supplemented with 1×PBS (−) that was preheated to 37° C., and were washed. This operation was repeated twice. The cells were supplemented with 1×PBS (−) again and incubated for 5 minutes at 37° C. (5% CO2). After the PBS (−) was removed, the cells were supplemented with 0.05% Trypsin-EDTA (nacalai tesque, 32778-34) and incubated for 5 minutes at 37° C. (5% CO2). The cells were then suspended in a medium, and collected by centrifugation at 1500 rpm for 3 minutes. DMEM (nacalai tesque, 08456-36)+10% FBS (Biowest, S1820-500)+1% P/S (nacalai tesque, 26252-94) was used as the medium. The disease model cells were seeded in a 6-well plate at a rate of 1.5×10^5 cells per well and cultured at 37° C. (5% CO2) for 48 hours. DMEM+10% FBS+1% P/S was used as the medium.
After 48 hours, the medium was removed, and AKP-001, SB203580 (Cayman, 13067), PH-797804 (Selleck Chemicals, S2726) and VX-702 (Selleck Chemicals, 56005) were added to DMEM+2% FBS+1% P/S so that the final concentration was 0.01, 0.03, 0.1, 0.3, 1, 3, 10 and 30 μM, followed by culturing as 24-hour pretreatment. After 24 hours, the medium was removed, and AKP-001, 5B203580 (Cayman, 13067), PH-797804 (Selleck Chemicals, S2726), or VX-702 (Selleck Chemicals, S6005), together with 100 ng/ml Recombinant Human TGF-β2 (R&D systems, RND302-B2-002), were added to DMEM+2% FBS+1% P/S so that the final concentration was 0.01 μM, 0.03 μM, 0.1 μM, 0.3 μM, 1 μM, 3 μM, 10 μM, and 30 μM, followed by culturing for 24 hours. After 24 hours, cell damage was evaluated by observation with a phase contrast microscope. As a control, immortalized corneal endothelial cells that were not stimulated with TGF-β were used.

For data set [2], the system named is cleaved caspase-3 and PARP. In words: Western blot of caspase 3 and PARP in iFECD stimulated with TGF-β2. The note with it: 0.1 μM; for cleaved caspase-3 and PARP expression: 100 ng/ml TGF-β2, 24 hours; for caspase activity: TGF-β2. It counts as cell-based, human. The method, then:
The medium was removed from the culture dish of cultured disease model cells, and the disease model cells were supplemented with 1×PBS (−) that was preheated to 37° C., followed by washing. This operation was repeated twice. The cells were supplemented with 1×PBS (−) again and incubated for 5 minutes at 37° C. (5% CO2). After the PBS (−) was removed, the cells were supplemented with 0.05% Trypsin-EDTA (nacalai tesque, 32778-34) and incubated for 5 minutes at 37° C. (5% CO2). The cells were then suspended in a medium, and collected by centrifugation at 1500 rpm for 3 minutes. Medium: DMEM (nacalai tesque, 08456-36)+10% FBS (Biowest, S1820-500)+1% P/S (nacalai tesque, 26252-94).
The Fuchs' endothelial corneal dystrophy patient-derived immortalized corneal endothelial cells were seeded in a 6-well plate at a rate of 1.5×10^5 cells per well and cultured at 37° C. (5% CO2) for 48 hours. DMEM+10% FBS+1% P/S was used as the medium. After 48 hours, the medium was removed, and SB203580 (Cayman, 13067), PH-797804 (Selleck Chemicals, S2726), VX-702 (Selleck Chemicals, 56005) and AKP-001 were added to DMEM+2% FBS+1% P/S so that all the final concentration was 0.1 μM, followed by culturing as 24-hour pretreatment.
After 24 hours, the medium was removed, and SB203580 (Cayman, 13067), PH-797804 (Selleck Chemicals, S2726), VX-702 (Selleck Chemicals, 56005) and AKP-001, together with 100 ng/ml recombinant human TGF-β2 (R & D systems, RND302-B2-002), were added to DMEM+2% FBS+1% P/S so that all the final concentration was 0.1 μM, followed by culturing for 24 hours. After 24 hours, the protein was subjected to Western blotting according to the following procedure to evaluate the effect on apoptosis.
The medium was collected on ice to collect free and dead cells as well. The solution obtained from washing the cells twice with 1×PBS (−) was also collected, followed by centrifugation of 800 g at 4° C. for 5 minutes. The supernatant was discarded to obtain precipitates. The washed cells were supplemented with a protein extraction buffer (RIPA; 50 mM Tris-HCl (pH 7.4), 150 mM NaCl, 1 mM EDTA, 0.1% SDS, 0.5% DOC, 1% NP-40) on ice to extract proteins. The precipitates from centrifuging the free and dead cells were also subsequently suspended together for extraction. The collected solution was pulverized three times for 30 seconds in cold water with a sonication device (BIORUPTOR, TOSHO DENKI) and centrifuged for 10 min at 4° C. at 15000 rpm to collect the supernatant of proteins.
Eight μg of the extracted protein was separated by SDS-PAGE and transferred onto a nitrocellulose membrane. A rabbit anti-Caspase 3 antibody (Cell Signaling, 9662), rabbit anti-PARP antibody (Cell Signaling, 9542), and mouse anti-GAPDH antibody (MBL, M171-3) were used as the primary antibodies. A peroxidase-labeled anti-rabbit antibody and anti-mouse antibody (GE Healthcare Biosciences, NA931V, NA934V) were used as the secondary antibodies. For the primary antibodies, the rabbit anti-PARP antibody was diluted 1000-fold, the rabbit anti-Caspase 3 antibody was diluted 1000-fold, and the mouse anti-GAPDH antibody was diluted 3000-fold. Further, the secondary antibody was diluted 5000-fold. Chemi Lumi ONE Ultra (Nacalai Tesque, 11644-40) was used for detection. The detected band strength was analyzed with a lumino image analyzer LAS-4000 mini (Fuji Film) and ImageQuant™ software (GE Healthcare).
(In western blotting, separated proteins are transferred to a membrane and probed.)

The next data set deals with corneal endothelium. In words: Histological analysis of the corneal endothelium after instillation. Format: in vivo. The note with it: 10 μM into the anterior chamber, after 24 hours, positive control. From the text:
Rabbits were euthanized, and then their eyes were removed and histologically analyzed. Expression of markers related to corneal endothelial functions was confirmed by immunostaining. The sclerocornea fragments were fixed with 0.5% paraformaldehyde and then blocked with 1% bovine serum albumin. As primary antibodies, ZO-1 antibody (Life Technologies) and N-cadherin antibody (BD Biosciences), which are indicators of the barrier function of corneal endothelial cells, and Na^+/K^+-ATPase antibody (MILLIPORE), which is an indicator of pump functions, were added, followed by standing at 4° C. overnight. […] Further, nuclear staining was performed using DAPI (Dojindo). To observe the cell morphology, actin was stained using Phalloidin (Life Technologies). The stained sclerocornea fragments were mounted in slide glasses and observed using a confocal fluorescence microscope (TCS SPE, Leica).
In addition, rabbits were euthanized, and then their eyes were removed. To assess cell death, the sclerocornea fragments were stained with Annexin V (Zymed Laboratories) and PI (Zymed Laboratories), fixed with 0.5% paraformaldehyde, and nuclear stained with DAPI (Dojindo). The stained sclerocornea fragments were mounted in slide glass and observed using a confocal fluorescence microscope (TCS SPE, Leica). Staurosporine (10 μM, Merck Millipore) was administered into the anterior chamber of a rabbit eyeball, and after 24 hours, it was used as a positive control.

“Also recorded” adds a separate entry of the source.

`CNC(=O)c1ccc(C)c(-n2c(C)cc(OCc3ccc(F)cc3F)c(Br)c2=O)c1` [PH-797804]: in data set [1], the “disorder in the corneal endothelial cells” value is listed as “effectively suppressed” and the “cell damage inhibitory effect for the corneal endothelial cells” value is “not observed; also recorded: No inhibitory effects”. Moreover, in data set [2], the “cleaved caspase-3 and PARP expression” value was “confirmed similarly”; the caspase activity result is given as “not inhibited”.
The like results for `NC(=O)c1ccc(N(C(N)=O)c2c(F)cccc2F)nc1-c1ccc(F)cc1F` [VX-702] were, in that order, “effectively suppressed”, “not observed; also recorded: No inhibitory effects”, “confirmed similarly” and “not inhibited”.
As to `CN[C@@H]1C[C@H]2O[C@@](C)([C@@H]1OC)n1c3ccccc3c3c4c(c5c6ccccc6n2c5c31)C(=O)NC4` [staurosporine, reference compound], the “Annexin V and PI staining (cell death)” value in the data set with corneal endothelium is “Staining with Annexin V or PI was observed”.
